# Measured values taken from patent publication US20100197650A1, “COMPOSITIONS AND METHODS OF TREATMENT COMPRISING CEFTAROLINE” (FOREST LABORATORIES HOLDINGS LTD., priority 2008, published 2010).
# Where two headings read alike, the source gives them in different places.
# Columns and labels:
# [1] = tested on: clinical Enterobacteriacae and P. aeruginosa isolates; assay: Susceptibility testing (Example 2), summary over species; format: cell-based; conditions: selected clinical isolates, except for 4 E. cloacae
# HA-MRSA = assay: Susceptibility testing MIC/MBC, broth microdilution (Example 3); format: cell-based, Staphylococcus aureus; conditions: for MIC: read-out: MIC; for MIC50: read-out: MIC50
# Procedure: Two hundred clinical HA-MRSA isolates, harboring the SCCmecIV type, were evaluated for susceptibility testing. […] Four strains, including 1 hVISA and 1 VISA, characterized by population analysis profile and Macro Etest were selected for time-kill analysis.
# Trypose soy agar (TSA; Difco, Detroit, Mich.) was used for colony counting.
# Minimum inhibitory concentrations (MIC) and minimum bactericidal concentrations (MBC) were determined by broth microdilution for all antimicrobials, according to the Clinical and Laboratory Standards Institute (CLSI) guidelines (Clinical and Laboratory Standards Institute. 2006. Methods for Dilution Antimicrobial Susceptibility Tests for Bacteria That Grow Aerobically; Approved Standard. 7th ed. Wayne, Pa.: CLSI). MBC values were determined by plating of aliquots of 5 μL from clear wells onto TSA. All susceptibility testing were performed in duplicate.
# ESBL-producing E. coli = assay: Susceptibility testing MIC/MBC, broth microdilution (Example 2); format: cell-based, Escherichia coli; conditions: for MBC / MIC: Escherichia coli
# [2] = HA-MRSA isolates of origin Blood
# [3] = HA-MRSA isolates of origin Lung
# [4] = HA-MRSA isolates of origin Skin
# [5] = HA-MRSA isolates of origin Unknown
# [6] = HA-MRSA isolates of origin Urine
smiles,measurement,setting,value
CCO/N=C(\C(=O)N[C@@H]1C(=O)N2C(C(=O)[O-])=C(Sc3nc(-c4cc[n+](C)cc4)cs3)CS[C@H]12)c1nsc(N)n1 [Ceftaroline],MIC range,[1],2 to 1024 µg/mL
same,% of Isolates with MBC 0.5 μg/mL,HA-MRSA; 200 HA-MRSA isolates,22%
same,% of Isolates with MBC 1 μg/mL,HA-MRSA; 200 HA-MRSA isolates,62.5%
same,% of Isolates with MBC 2 μg/mL,HA-MRSA; 200 HA-MRSA isolates,15.5%
same,% of Isolates with MIC 0.25 μg/mL,HA-MRSA; 200 HA-MRSA isolates,4%
same,% of Isolates with MIC 0.5 μg/mL,HA-MRSA; 200 HA-MRSA isolates,35.5%
same,% of Isolates with MIC 1 μg/mL,HA-MRSA; 200 HA-MRSA isolates,57%
same,% of Isolates with MIC 2 μg/mL,HA-MRSA; 200 HA-MRSA isolates,1.5%
same,MBC range,HA-MRSA; 200 HA-MRSA isolates,0.5 to 2 µg/mL
same,MIC range,HA-MRSA; 200 HA-MRSA isolates,0.25 to 2 µg/mL
same,MBC range,HA-MRSA; [2],0.5 to 2 µg/mL
same,MIC range,HA-MRSA; [2],0.25 to 2 µg/mL
same,MBC range,HA-MRSA; [3],0.5 to 2 µg/mL
same,MIC range,HA-MRSA; [3],0.25 to 2 µg/mL
same,MBC range,HA-MRSA; [4],0.5 to 2 µg/mL
same,MIC range,HA-MRSA; [4],0.5 to 2 µg/mL
same,MBC range,HA-MRSA; [5],0.5 to 2 µg/mL
same,MIC range,HA-MRSA; [5],0.5 to 1 µg/mL
same,MBC range,HA-MRSA; [6],0.5 to 2 µg/mL
same,MIC range,HA-MRSA; [6],0.5 to 1 µg/mL
same,MBC,"HA-MRSA; Staphylococcus aureus, MRSA / VISA, HA-MRSA isolate R2303 (VISA), read-out: MBC",0.25 µg/mL
same,MIC,"HA-MRSA; Staphylococcus aureus, MRSA / VISA, HA-MRSA isolate R2303 (VISA)",0.25 µg/mL
same,MIC50,"HA-MRSA; Staphylococcus aureus, MRSA, 200 HA-MRSA isolates",1 µg/mL
same,MBC,"HA-MRSA; Staphylococcus aureus, MRSA, HA-MRSA isolate R3804, read-out: MBC",0.25 µg/mL
same,MIC,"HA-MRSA; Staphylococcus aureus, MRSA, HA-MRSA isolate R3804",0.25 µg/mL
same,MBC,"HA-MRSA; Staphylococcus aureus, MRSA, HA-MRSA isolate R3875 (hVISA), read-out: MBC",1 µg/mL
same,MIC,"HA-MRSA; Staphylococcus aureus, MRSA, HA-MRSA isolate R3875 (hVISA)",1 µg/mL
same,MBC,"HA-MRSA; Staphylococcus aureus, MRSA, HA-MRSA isolate R4039, read-out: MBC",0.5 µg/mL
same,MIC,"HA-MRSA; Staphylococcus aureus, MRSA, HA-MRSA isolate R4039",0.5 µg/mL
same,MBC,"HA-MRSA; Staphylococcus aureus, MRSA, HA-MRSA isolates of origin Blood, read-out: MBC50",1 µg/mL
same,MIC50,"HA-MRSA; Staphylococcus aureus, MRSA, HA-MRSA isolates of origin Blood",1 µg/mL
same,MBC,"HA-MRSA; Staphylococcus aureus, MRSA, HA-MRSA isolates of origin Lung, read-out: MBC50",1 µg/mL
same,MIC50,"HA-MRSA; Staphylococcus aureus, MRSA, HA-MRSA isolates of origin Lung",1 µg/mL
same,MBC,"HA-MRSA; Staphylococcus aureus, MRSA, HA-MRSA isolates of origin Skin, read-out: MBC50",1 µg/mL
same,MIC50,"HA-MRSA; Staphylococcus aureus, MRSA, HA-MRSA isolates of origin Skin",1 µg/mL
same,MBC,"HA-MRSA; Staphylococcus aureus, MRSA, HA-MRSA isolates of origin Unknown, read-out: MBC50",1 µg/mL
same,MIC50,"HA-MRSA; Staphylococcus aureus, MRSA, HA-MRSA isolates of origin Unknown",1 µg/mL
same,MBC,"HA-MRSA; Staphylococcus aureus, MRSA, HA-MRSA isolates of origin Urine, read-out: MBC50",1 µg/mL
same,MIC50,"HA-MRSA; Staphylococcus aureus, MRSA, HA-MRSA isolates of origin Urine",0.5 µg/mL
same,MIC90,"HA-MRSA; Staphylococcus aureus, 200 HA-MRSA isolates, read-out: MIC90",1 µg/mL
same,MBC range,ESBL-producing E. coli; E. coli (10) clinical isolates,4 to 1024 µg/mL
same,MIC range,ESBL-producing E. coli; E. coli (10) clinical isolates,2 to 512 µg/mL
same,MBC,"ESBL-producing E. coli; E. coli isolate no. 5401, read-out: MBC",8 µg/mL
same,MIC,"ESBL-producing E. coli; E. coli isolate no. 5401, read-out: MIC",4 µg/mL
same,MBC,ESBL-producing E. coli; E. coli isolate no. 5411,128 µg/mL
same,MIC,ESBL-producing E. coli; E. coli isolate no. 5411,64 µg/mL
